Residue numbers refer to the chain shown, from its start. Peptide text beside a SMILES is read from it. * marks the point of attachment. Cbz = O=C(OCc1ccccc1)*; OtBu = CC(C)(C)O*
Key:
[1] = system: membranes from untransfected HEK293 cells; experiment: [125I]GIP(1-42)OH radioligand binding, untransfected control; set-up: species or system human; conditions: either assay condition
Procedure: Radioligand binding to the GIPR variant receptors was performed using the assay procedure described in ([59]) with some slight modification in the buffer. […] A3782), and 25 mM Hepes (Gibco, catalog no. […] The assay was incubated overnight at 25°C and then centrifuged at 1000 rpm (Beckman Coulter, Avanti J-15R).

hGIPR WT = biological target: T1, hGIPR WT (Homo sapiens, UniProt P48546); experiment: cAMP accumulation in HEK293 cells, untagged GIPR (Eli Lilly); format: cell-based; conditions: HEK-293, untagged, 0.1% casein, (SEM, n), n=4
T1 construct: expressed in transfected cells; host or cells: HEK293, transient
T1 sequence (P48546 22-466): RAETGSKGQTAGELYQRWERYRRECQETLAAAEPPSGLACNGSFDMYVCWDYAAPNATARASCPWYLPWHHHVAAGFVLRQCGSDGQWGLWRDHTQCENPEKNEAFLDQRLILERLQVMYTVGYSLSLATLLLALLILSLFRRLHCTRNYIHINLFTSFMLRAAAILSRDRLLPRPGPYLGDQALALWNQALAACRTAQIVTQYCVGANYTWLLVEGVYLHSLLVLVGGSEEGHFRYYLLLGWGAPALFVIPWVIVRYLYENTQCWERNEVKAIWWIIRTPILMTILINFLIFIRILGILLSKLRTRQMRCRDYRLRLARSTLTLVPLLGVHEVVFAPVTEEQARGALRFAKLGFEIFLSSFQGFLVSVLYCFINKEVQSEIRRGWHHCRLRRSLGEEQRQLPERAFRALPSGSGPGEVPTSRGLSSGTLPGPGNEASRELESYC

[2] = biological target: T2, wild-type and variant SNAP-GIPR (Homo sapiens, UniProt P48546, E354Q); experiment: cAMP concentration response (HTRF) in AD293 cells, SNAP-GIPR; format: cell-based; conditions: AD293, SNAP-GIPR E354Q, 0.1% BSA
T2 construct: the endogenous GIPR signal peptide was removed and replaced with a SNAPf tag; host or cells: AD293 (adherent HEK293), transient transfection
T2 sequence (P48546 22-466 E354Q): T1 sequence (P48546 22-466) with E333Q
Procedure: (Imperial College London): 24 hours before the experiment, AD293 cells were reverse transfected with the GIPR variant or wild-type plasmids using Lipofectamine 2000 in 12-well plates. All variants were tested in parallel on each occasion to control for transfection efficiency differences between experiments. […] Data were fit using a three-parameter logistic model using GraphPad Prism 10.

[3] = system: wild-type and variant SNAP-GIPR in INS-1 cells; experiment: Proteasomal inhibition, total SNAP-GIPR in INS-1 cells; format: cell-based, human; conditions: for total SNAP-GIPR level with PSI: 100 μM, 4 h, INS-1, scaled to experimental average without PSI; for total SNAP-GIPR level after proteasomal inhibition: INS-1, 100 μM, 4 hours
Procedure: INS-1 cells were reverse transfected with the GIPR variant or wild-type plasmids in 96-well, clear-bottom, black microplates precoated with poly-D-lysine. All variants were tested in parallel on each occasion to control for transfection efficiency differences between experiments. Twelve hours posttransfection, the cells were treated with either vehicle or Proteasome Inhibitor I (Merck) for 4 hours. Following this, the cells were labeled with the cell-permeable SNAP-tag probe BG-OG ([29]) for 10 min at 37°C to label total SNAP. Cells were then imaged as in the “Assessment of surface GIPR expression by SNAP-tag labeling in cell lines” section to establish total GIPR labeling (surface and intracellular). Images were analyzed as in the “Assessment of surface GIPR expression by SNAP-tag labeling in cell lines” section.

[4] = system: wild-type and variant SNAP-GIPR in INS-1 cells; experiment: Bafilomycin A1 effect on surface SNAP-GIPR in INS-1 cells; format: cell-based, human; conditions: inhibition of constitutive GIPR down-regulation; fig. S2A
Procedure: Twenty-four hours before the experiment, AD293 or INS-1 cells were reverse transfected with GIPR variant or wild-type plasmids using Lipofectamine 2000 in 96-well, clear-bottom, black microplates precoated with poly-D-lysine. All variants were tested in parallel on each occasion to control for transfection efficiency differences between experiments.

[125I]GIP(1-42)OH: radioligand [125I]GIP(1-42)OH (Revvity)
specific binding, untransfected HEK293 membranes [1]: no significant specific binding detected

CC[C@H](C)[C@H](NC(=O)[C@H](CC(C)C)NC(=O)[C@H](Cc1c[nH]c2ccccc12)NC(=O)[C@H](CCC(N)=O)NC(=O)[C@@H](NC(=O)[C@H](Cc1ccccc1)NC(=O)[C@H](C)NC(=O)[C@H](CCCCNC(=O)COCCOCCNC(=O)COCCOCCNC(=O)CC[C@H](NC(=O)CCCCCCCCCCCCCCCCCCC(=O)O)C(=O)O)NC(=O)[C@H](CCC(N)=O)NC(=O)[C@H](C)NC(=O)[C@@H](NC(=O)[C@H](CCCCN)NC(=O)[C@H](CC(=O)O)NC(=O)[C@H](CC(C)C)NC(=O)C(C)(C)NC(=O)[C@@H](NC(=O)[C@H](CO)NC(=O)[C@H](Cc1ccc(O)cc1)NC(=O)[C@H](CC(=O)O)NC(=O)[C@H](CO)NC(=O)[C@@H](NC(=O)[C@H](Cc1ccccc1)NC(=O)[C@@H](NC(=O)CNC(=O)[C@H](CCC(=O)O)NC(=O)C(C)(C)NC(=O)[C@@H](N)Cc1ccc(O)cc1)[C@@H](C)O)[C@@H](C)O)[C@@H](C)CC)[C@@H](C)CC)C(C)C)C(=O)N[C@@H](C)C(=O)NCC(=O)NCC(=O)N1CCC[C@H]1C(=O)N[C@@H](CO)C(=O)N[C@@H](CO)C(=O)NCC(=O)N[C@@H](C)C(=O)N1CCC[C@H]1C(=O)N1CCC[C@H]1C(=O)N1CCC[C@H]1C(=O)N[C@@H](CO)C(N)=O [tirzepatide]
Emax (hGIPR WT): 90.6%
cAMP signaling (∆LogEmax/EC50) [2]: increased cAMP signaling

CC[C@H](C)[C@H](NC(=O)OCc1ccccc1)C(=O)N[C@@H](CCC(=O)OC(C)(C)C)C(=O)N[C@@H](C)C(=O)N[C@H](C=O)CC(C)C [PSI] (Cbz-IE(OtBu)AL-aldehyde)
total SNAP-GIPR level with PSI ([3]; E288G, replicate 1): 0.3892
total SNAP-GIPR level with PSI ([3]; E288G, replicate 2): 3.417
total SNAP-GIPR level with PSI ([3]; E288G, replicate 3): 2.001
total SNAP-GIPR level with PSI ([3]; E288G, replicate 4): 0.9026
total SNAP-GIPR level with PSI ([3]; E288G, replicate 5): 1.217
total SNAP-GIPR level with PSI ([3]; E354Q, replicate 1): 0.9055
total SNAP-GIPR level with PSI ([3]; E354Q, replicate 2): 0.737
total SNAP-GIPR level with PSI ([3]; E354Q, replicate 3): 1.364
total SNAP-GIPR level with PSI ([3]; E354Q, replicate 4): 0.8268
total SNAP-GIPR level with PSI ([3]; E354Q, replicate 5): 0.8316
total SNAP-GIPR level after proteasomal inhibition ([3]; E288G): significant increase in E288G levels
total SNAP-GIPR level after proteasomal inhibition ([3]; R190Q and R101H): numerically similar trends
total SNAP-GIPR level after proteasomal inhibition ([3]; wild-type and E354Q): unaffected by proteasomal inhibition
total SNAP-GIPR level with PSI ([3]; R101H, replicate 1): 0.131
total SNAP-GIPR level with PSI ([3]; R101H, replicate 2): 0.3704
total SNAP-GIPR level with PSI ([3]; R101H, replicate 3): 0.7801
total SNAP-GIPR level with PSI ([3]; R101H, replicate 4): 0.651
total SNAP-GIPR level with PSI ([3]; R101H, replicate 5): 0.8591
total SNAP-GIPR level with PSI ([3]; R190Q, replicate 1): 0.3291
total SNAP-GIPR level with PSI ([3]; R190Q, replicate 2): 0.5524
total SNAP-GIPR level with PSI ([3]; R190Q, replicate 3): 1.18
total SNAP-GIPR level with PSI ([3]; R190Q, replicate 4): 0.5932
total SNAP-GIPR level with PSI ([3]; R190Q, replicate 5): 0.77
total SNAP-GIPR level with PSI ([3]; WT, replicate 1): 4.2848
total SNAP-GIPR level with PSI ([3]; WT, replicate 2): 3.795
total SNAP-GIPR level with PSI ([3]; WT, replicate 3): 3.454
total SNAP-GIPR level with PSI ([3]; WT, replicate 4): 1.746
total SNAP-GIPR level with PSI ([3]; WT, replicate 5): 2.287

CO/C1=C\C(C)=C\[C@@H](C)[C@@H](O)[C@@H](C)C/C(C)=C/C=C/[C@H](OC)[C@@H]([C@@H](C)[C@@H](O)[C@H](C)[C@@]2(O)C[C@@H](O)[C@H](C)[C@@H](C(C)C)O2)OC1=O [bafilomycin A1]
rescue of surface expression of GIPR variants [4]: did not lead to disproportionate “rescue”

Reference: PMC13544220, “Glycemic and bodyweight effects of GIPR coding variation reflect differences in surface expression and intrinsic functional impairment” (Science Advances, 2026)
